# From patent publication US5545639A, “Method of inhibiting transformed cells” (The United States of America as represented by the …, priority 1994, dated 1996)
# Assays:
# Assay in all cases: Dose response of growth, tumor cell line
# Type in all cases: cell-based
# CCRF-CEM = conditions: Homo sapiens, leukemia
# Procedure: (§1) Indeed, 70% of the cell lines were shown not only to experience precluded growth, but cell death, when exposed to less then 100 μM of the active ingredient.
# HCC-2998 = conditions: Homo sapiens, HCC-2998, colon cancer
# Procedure: as §1
# HCT-116 = conditions: Homo sapiens, HCT-116, colon cancer
# Procedure: as §1
# HOP-62 = conditions: Homo sapiens, HOP-62, non-small cell lung cancer
# Procedure: as §1
# HT29 = conditions: Homo sapiens, HT-29, HT29, colon cancer
# Procedure: as §1
# KM12 = conditions: Homo sapiens, KM12, colon cancer
# Procedure: as §1
# MALME-3M = conditions: Homo sapiens, melanoma
# Procedure: as §1
# NCI-H226 = conditions: Homo sapiens, NCI-H226, non-small cell lung cancer
# Procedure: as §1
# NCI-H23 = conditions: Homo sapiens, NCI-H23, non-small cell lung cancer
# Procedure: as §1
# NCI-H322M = conditions: Homo sapiens, non-small cell lung cancer
# Procedure: as §1
# OVCAR-5 = conditions: Homo sapiens, OVCAR-5, ovarian cancer
# Procedure: as §1
# OVCAR-8 = conditions: Homo sapiens, OVCAR-8, ovarian cancer
# Procedure: as §1
# RPMT-8226 = conditions: Homo sapiens, RPMT-8226, leukemia
# Procedure: as §1
# RXF-393 = conditions: Homo sapiens, RXF-393, renal cancer
# Procedure: as §1
# SF-268 = conditions: Homo sapiens, SF-268, CNS cancer
# Procedure: as §1
# SK-MEL-28 = conditions: Homo sapiens, SK-MEL-28, melanoma
# Procedure: as §1
# SK-MEL-5 = conditions: Homo sapiens, SK-MEL-5, melanoma
# Procedure: as §1
# SK-OV-3 = conditions: Homo sapiens, SK-OV-3, ovarian cancer
# Procedure: as §1
# SNB-75 = conditions: Homo sapiens, SNB-75, CNS cancer
# Procedure: as §1
# SW-620 = conditions: Homo sapiens, SW-620, colon cancer
# Procedure: as §1
# U251 = conditions: Homo sapiens, U-251, U251, CNS cancer
# Procedure: as §1
# UACC-62 = conditions: Homo sapiens, UACC-62, melanoma
# Procedure: as §1
# UO-31 = conditions: Homo sapiens, UO-31, renal cancer
# Procedure: as §1
# XF 498 = conditions: Homo sapiens, XF498, XF 498, CNS cancer
# Procedure: as §1
# [1] = read-out: 50% Growth (Relative to Control)
# [2] = read-out: No Growth (Relative to Control)
compound,measurement,setting,value
"ClCc1ccc2ccc3ccc(CCl)nc3c2n1 [2,9-bis(chloromethyl)-1,10-phenanthroline]",IC50,CCRF-CEM; [1],1.8 µM
same,CC50,CCRF-CEM; read-out: 50% Loss (50% kill),> 100 µM
same,IC100,CCRF-CEM; [2],8.64 µM
same,IC50,HCC-2998; [1],1.56 µM
same,CC50,HCC-2998; read-out: 50% Loss (50% kill),6.18 µM
same,IC100,HCC-2998; [2],3.11 µM
same,IC50,HCT-116; [1],1.8 µM
same,CC50,HCT-116; read-out: 50% Loss (50% kill),8.31 µM
same,IC100,HCT-116; [2],3.87 µM
same,IC50,HOP-62; [1],2.29 µM
same,CC50,HOP-62; read-out: 50% Loss (50% kill),19.2 µM
same,IC100,HOP-62; [2],5.3 µM
same,IC50,HT29; [1],1.31 µM
same,CC50,HT29; read-out: 50% Loss (50% kill),5.48 µM
same,IC100,HT29; [2],2.68 µM
same,IC50,KM12; [1],0.761 µM
same,CC50,KM12; read-out: 50% Loss (50% kill),6.43 µM
same,IC100,KM12; [2],2.39 µM
same,IC50,MALME-3M; [1],1.89 µM
same,CC50,MALME-3M; read-out: 50% Loss (50% kill),6.16 µM
same,IC100,MALME-3M; [2],3.41 µM
same,IC50,NCI-H226; [1],3.06 µM
same,CC50,NCI-H226; read-out: 50% Loss (50% kill),68.3 µM
same,IC100,NCI-H226; [2],9.91 µM
same,IC50,NCI-H23; [1],1.87 µM
same,CC50,NCI-H23; read-out: 50% Loss (50% kill),7.24 µM
same,IC100,NCI-H23; [2],3.68 µM
same,IC50,NCI-H322M; [1],2.84 µM
same,CC50,NCI-H322M; read-out: 50% Loss (50% kill),29.2 µM
same,IC100,NCI-H322M; [2],8.41 µM
same,IC50,OVCAR-5; [1],1.87 µM
same,CC50,OVCAR-5; read-out: 50% Loss (50% kill),6.63 µM
same,IC100,OVCAR-5; [2],3.52 µM
same,IC50,OVCAR-8; [1],6.85 µM
same,CC50,OVCAR-8; read-out: 50% Loss (50% kill),> 100 µM
same,IC100,OVCAR-8; [2],> 100 µM
same,IC50,RPMT-8226; [1],1.25 µM
same,CC50,RPMT-8226; read-out: 50% Loss (50% kill),> 100 µM
same,IC100,RPMT-8226; [2],36.6 µM
same,IC50,RXF-393; [1],1.65 µM
same,CC50,RXF-393; read-out: 50% Loss (50% kill),6.03 µM
same,IC100,RXF-393; [2],3.16 µM
same,IC50,SF-268; [1],1.79 µM
same,IC100,SF-268; [2],3.74 µM
same,IC50,SK-MEL-28; [1],1.35 µM
same,CC50,SK-MEL-28; read-out: 50% Loss (50% kill),6.5 µM
same,IC100,SK-MEL-28; [2],2.97 µM
same,IC50,SK-MEL-5; [1],1.59 µM
same,CC50,SK-MEL-5; read-out: 50% Loss (50% kill),9.45 µM
same,IC100,SK-MEL-5; [2],3.88 µM
same,IC50,SK-OV-3; [1],8.9 µM
same,CC50,SK-OV-3; read-out: 50% Loss (50% kill),> 10 µM
same,IC100,SK-OV-3; [2],> 10 µM
same,IC50,SNB-75; [1],1.72 µM
same,CC50,SNB-75; read-out: 50% Loss (50% kill),15.5 µM
same,IC100,SNB-75; [2],4.53 µM
same,IC50,SW-620; [1],3.18 µM
same,CC50,SW-620; read-out: 50% Loss (50% kill),> 100 µM
same,IC100,SW-620; [2],14.1 µM
same,IC50,U251; [1],2.06 µM
same,CC50,U251; read-out: 50% Loss (50% kill),8.11 µM
same,IC100,U251; [2],4.09 µM
same,IC50,UACC-62; [1],1.18 µM
same,CC50,UACC-62; read-out: 50% Loss (50% kill),5.07 µM
same,IC100,UACC-62; [2],2.45 µM
same,IC50,UO-31; [1],1.69 µM
same,CC50,UO-31; read-out: 50% Loss (50% kill),6.08 µM
same,IC100,UO-31; [2],3.21 µM
same,IC50,XF 498; [1],1.72 µM
same,CC50,XF 498; read-out: 50% Loss (50% kill),> 100 µM
same,IC100,XF 498; [2],5.63 µM
